From ChEMBL document CHEMBL1135773, “Purine and pyrimidine (P2) receptors as drug targets” (J Med Chem, 2002)

Assays:
P2X purinoceptor 1 [1] = molecular target: T1, P2X purinoceptor 1 (Rattus norvegicus, UniProt P47824); test: The compound was evaluated for antagonist activity against recombinant rat P2X purinoceptor 1 (P2X1); format: functional
T1 sequence (P47824 whole entry): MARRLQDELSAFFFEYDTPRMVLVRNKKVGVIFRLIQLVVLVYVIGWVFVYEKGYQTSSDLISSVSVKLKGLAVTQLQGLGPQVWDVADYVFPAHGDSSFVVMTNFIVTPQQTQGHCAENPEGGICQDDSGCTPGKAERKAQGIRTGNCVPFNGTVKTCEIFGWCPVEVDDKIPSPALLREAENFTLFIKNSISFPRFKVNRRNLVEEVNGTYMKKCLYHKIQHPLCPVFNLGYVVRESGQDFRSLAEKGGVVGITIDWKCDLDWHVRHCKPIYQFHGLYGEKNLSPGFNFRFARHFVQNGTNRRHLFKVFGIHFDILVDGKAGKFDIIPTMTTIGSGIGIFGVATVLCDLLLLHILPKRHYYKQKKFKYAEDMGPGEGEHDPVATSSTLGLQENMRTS

P2Y purinoceptor 1 = P2Y purinoceptor 1 (Meleagris gallopavo, UniProt P49652); test: Evaluated for agonist activity against phospholipase C coupled P2Y purinoceptor 1 (P2Y1) of turkey erythrocytes; format: functional
Chain of P2Y purinoceptor 1 (P49652 whole entry): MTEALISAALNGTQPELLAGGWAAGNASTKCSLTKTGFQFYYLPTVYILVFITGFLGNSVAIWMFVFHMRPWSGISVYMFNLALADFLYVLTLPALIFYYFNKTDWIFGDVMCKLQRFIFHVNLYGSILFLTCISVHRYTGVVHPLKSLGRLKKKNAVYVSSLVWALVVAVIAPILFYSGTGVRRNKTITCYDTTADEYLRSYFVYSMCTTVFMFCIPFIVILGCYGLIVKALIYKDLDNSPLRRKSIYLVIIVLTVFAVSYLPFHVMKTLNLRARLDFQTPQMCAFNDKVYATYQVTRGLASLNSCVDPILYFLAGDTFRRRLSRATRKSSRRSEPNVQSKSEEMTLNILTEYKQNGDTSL

P2Y purinoceptor 12 = P2Y purinoceptor 12 (Rattus norvegicus, UniProt Q9EPX4); test: Antagonist activity against phospholipase C coupled rat P2Y purinoceptor 12 (P2Y12); format: functional
Chain of P2Y purinoceptor 12 (Q9EPX4 whole entry): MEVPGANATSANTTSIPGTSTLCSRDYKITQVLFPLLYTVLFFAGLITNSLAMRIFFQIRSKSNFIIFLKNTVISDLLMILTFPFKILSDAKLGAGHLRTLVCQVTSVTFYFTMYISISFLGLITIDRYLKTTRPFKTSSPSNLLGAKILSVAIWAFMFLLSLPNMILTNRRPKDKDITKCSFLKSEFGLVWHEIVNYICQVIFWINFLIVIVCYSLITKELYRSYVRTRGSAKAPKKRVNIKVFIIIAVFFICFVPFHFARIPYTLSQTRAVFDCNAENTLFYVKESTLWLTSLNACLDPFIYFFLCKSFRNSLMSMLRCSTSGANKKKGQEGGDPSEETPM

P2X purinoceptor 1 [2] = molecular target: T2, P2X purinoceptor 1 (Homo sapiens, UniProt P51575); test: Antagonist activity against recombinant human P2X purinoceptor 1 (P2X1 ); format: functional
T2 sequence (P51575 whole entry): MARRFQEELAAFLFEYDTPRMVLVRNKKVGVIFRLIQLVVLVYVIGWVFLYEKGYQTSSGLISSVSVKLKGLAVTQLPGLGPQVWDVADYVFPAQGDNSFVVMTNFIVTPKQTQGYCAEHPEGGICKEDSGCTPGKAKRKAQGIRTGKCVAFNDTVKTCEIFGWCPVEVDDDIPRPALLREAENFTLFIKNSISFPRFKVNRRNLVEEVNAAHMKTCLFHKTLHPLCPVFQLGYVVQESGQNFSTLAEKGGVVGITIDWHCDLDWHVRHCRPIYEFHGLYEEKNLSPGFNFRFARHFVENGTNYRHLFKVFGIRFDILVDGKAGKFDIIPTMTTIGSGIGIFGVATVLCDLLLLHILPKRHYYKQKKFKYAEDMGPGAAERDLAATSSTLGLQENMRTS

P2Y purinoceptor 2 = P2Y purinoceptor 2 (Homo sapiens, UniProt P41231); test: Evaluated for agonist activity against phospholipase C coupled recombinant human P2Y purinoceptor 2 (P2Y2); format: functional
Chain of P2Y purinoceptor 2 (P41231 whole entry): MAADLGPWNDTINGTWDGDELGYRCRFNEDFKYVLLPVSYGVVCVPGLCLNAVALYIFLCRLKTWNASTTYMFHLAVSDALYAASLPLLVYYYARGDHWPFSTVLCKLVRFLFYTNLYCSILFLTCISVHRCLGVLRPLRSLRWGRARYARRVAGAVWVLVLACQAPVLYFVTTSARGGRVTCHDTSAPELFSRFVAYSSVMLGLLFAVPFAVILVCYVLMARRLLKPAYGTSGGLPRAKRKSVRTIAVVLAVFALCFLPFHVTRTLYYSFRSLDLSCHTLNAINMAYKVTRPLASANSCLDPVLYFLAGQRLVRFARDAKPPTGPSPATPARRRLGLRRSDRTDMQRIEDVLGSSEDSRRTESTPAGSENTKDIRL

P2X purinoceptor 6 = P2X purinoceptor 6 (Rattus norvegicus, UniProt P51579); test: Antagonist activity against recombinant rat P2X purinoceptor 6 (P2X6 ); format: functional
Chain of P2X purinoceptor 6 (P51579 whole entry): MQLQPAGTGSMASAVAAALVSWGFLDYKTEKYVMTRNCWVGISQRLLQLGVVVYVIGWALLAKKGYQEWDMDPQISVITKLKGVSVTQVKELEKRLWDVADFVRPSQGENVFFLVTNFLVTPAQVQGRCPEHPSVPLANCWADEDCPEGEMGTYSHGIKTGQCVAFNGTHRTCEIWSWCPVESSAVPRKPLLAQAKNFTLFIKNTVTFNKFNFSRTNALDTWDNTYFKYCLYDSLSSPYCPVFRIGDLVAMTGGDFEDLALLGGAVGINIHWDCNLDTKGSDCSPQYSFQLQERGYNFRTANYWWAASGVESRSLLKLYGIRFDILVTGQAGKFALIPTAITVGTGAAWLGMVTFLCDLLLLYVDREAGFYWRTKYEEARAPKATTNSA

P2X purinoceptor 3 = molecular target: T3, P2X purinoceptor 3 (Homo sapiens, UniProt P56373); test: Antagonist activity against recombinant human P2X purinoceptor 3 (P2X3 ); format: functional
T3 sequence (P56373 whole entry): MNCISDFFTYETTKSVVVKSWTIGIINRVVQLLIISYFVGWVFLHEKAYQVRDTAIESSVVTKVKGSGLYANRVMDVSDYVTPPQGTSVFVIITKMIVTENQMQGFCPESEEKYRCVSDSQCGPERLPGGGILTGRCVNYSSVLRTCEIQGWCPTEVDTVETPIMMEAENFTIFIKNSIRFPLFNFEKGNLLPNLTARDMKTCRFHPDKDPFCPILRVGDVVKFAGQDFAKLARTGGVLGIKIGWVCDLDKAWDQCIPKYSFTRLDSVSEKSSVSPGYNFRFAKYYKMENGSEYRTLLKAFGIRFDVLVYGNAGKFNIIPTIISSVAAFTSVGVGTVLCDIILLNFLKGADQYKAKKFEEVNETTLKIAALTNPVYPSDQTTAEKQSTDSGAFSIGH

P2X purinoceptor 2 = molecular target: T4, P2X purinoceptor 2 (Rattus norvegicus, UniProt P49653); test: Antagonist activity against recombinant rat receptor P2X purinoceptor 2 (P2X2) at 10 uM, expressed in Xenopus oocytes; format: functional, cell-based, Oocyte
T4 sequence (P49653 whole entry): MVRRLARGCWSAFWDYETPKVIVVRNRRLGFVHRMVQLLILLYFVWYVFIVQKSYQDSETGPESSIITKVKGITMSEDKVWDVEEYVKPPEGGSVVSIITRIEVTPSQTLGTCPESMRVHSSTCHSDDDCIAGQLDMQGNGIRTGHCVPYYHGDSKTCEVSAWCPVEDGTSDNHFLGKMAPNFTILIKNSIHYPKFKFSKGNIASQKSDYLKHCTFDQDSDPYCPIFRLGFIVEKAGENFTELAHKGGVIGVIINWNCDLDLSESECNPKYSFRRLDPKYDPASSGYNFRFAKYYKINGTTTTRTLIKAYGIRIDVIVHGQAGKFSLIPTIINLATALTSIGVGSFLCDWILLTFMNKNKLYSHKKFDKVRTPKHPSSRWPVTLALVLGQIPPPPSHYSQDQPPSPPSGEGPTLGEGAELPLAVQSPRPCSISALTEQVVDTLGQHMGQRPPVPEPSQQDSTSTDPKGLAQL

P2Y purinoceptor 11 = molecular target: T5, P2Y purinoceptor 11 (Homo sapiens, UniProt Q96G91); test: Agonist activity against phospholipase C coupled human P2Y purinoceptor 11 (P2Y11); format: functional
T5 sequence (Q96G91 whole entry): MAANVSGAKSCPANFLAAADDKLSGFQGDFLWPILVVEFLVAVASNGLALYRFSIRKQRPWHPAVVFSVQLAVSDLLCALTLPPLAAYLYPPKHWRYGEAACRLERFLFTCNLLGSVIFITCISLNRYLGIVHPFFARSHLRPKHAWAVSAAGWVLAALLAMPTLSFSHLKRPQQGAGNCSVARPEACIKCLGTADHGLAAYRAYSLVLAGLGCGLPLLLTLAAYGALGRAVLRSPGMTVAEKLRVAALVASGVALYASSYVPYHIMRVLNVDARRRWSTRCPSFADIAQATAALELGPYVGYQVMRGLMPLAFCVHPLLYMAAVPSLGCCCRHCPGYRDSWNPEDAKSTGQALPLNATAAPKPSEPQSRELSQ

P2X purinoceptor 5 = molecular target: T6, P2X purinoceptor 5 (Rattus norvegicus, UniProt P51578); test: Antagonist activity against recombinant rat P2X purinoceptor 5 (P2X5); format: functional
T6 sequence (P51578 whole entry): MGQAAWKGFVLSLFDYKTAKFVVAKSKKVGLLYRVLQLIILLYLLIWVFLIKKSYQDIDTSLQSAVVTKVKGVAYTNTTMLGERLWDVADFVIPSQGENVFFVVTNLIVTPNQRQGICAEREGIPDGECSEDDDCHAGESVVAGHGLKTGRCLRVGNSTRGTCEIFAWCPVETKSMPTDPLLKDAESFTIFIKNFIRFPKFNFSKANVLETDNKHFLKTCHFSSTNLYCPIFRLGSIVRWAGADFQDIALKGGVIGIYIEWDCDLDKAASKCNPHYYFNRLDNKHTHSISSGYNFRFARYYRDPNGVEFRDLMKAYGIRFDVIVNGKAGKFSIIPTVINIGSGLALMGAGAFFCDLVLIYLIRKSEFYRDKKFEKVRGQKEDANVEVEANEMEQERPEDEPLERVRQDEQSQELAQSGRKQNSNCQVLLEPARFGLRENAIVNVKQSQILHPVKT

P2X purinoceptor 4 [3] = molecular target: T7, P2X purinoceptor 4 (Rattus norvegicus, UniProt P51577); test: Antagonist activity against recombinant rat P2X purinoceptor 4 (P2X4) at 30 uM, expressed in Xenopus oocytes; format: functional, cell-based, Oocyte
T7 sequence (P51577 whole entry): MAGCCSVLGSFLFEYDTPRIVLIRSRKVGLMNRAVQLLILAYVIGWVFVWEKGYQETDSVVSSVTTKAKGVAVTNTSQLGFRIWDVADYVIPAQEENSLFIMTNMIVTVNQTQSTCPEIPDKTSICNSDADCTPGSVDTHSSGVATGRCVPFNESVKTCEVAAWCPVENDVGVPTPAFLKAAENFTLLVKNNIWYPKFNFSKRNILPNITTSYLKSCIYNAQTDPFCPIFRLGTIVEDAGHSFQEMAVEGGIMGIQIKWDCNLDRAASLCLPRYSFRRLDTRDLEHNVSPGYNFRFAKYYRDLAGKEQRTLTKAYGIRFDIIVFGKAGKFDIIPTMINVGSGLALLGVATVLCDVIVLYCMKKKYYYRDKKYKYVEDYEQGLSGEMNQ

P2X purinoceptor 1 [4] = molecular target: T1, P2X purinoceptor 1; test: The compound was evaluated for antagonist activity against recombinant rat P2X purinoceptor 1 (P2X1) at 1 uM, expressed in Xenopus oocytes; format: functional, cell-based, Oocyte
P2X purinoceptor 4 [5] = molecular target: T7, P2X purinoceptor 4; test: Antagonist activity against recombinant rat P2X purinoceptor 4 (P2X4) at 3 uM, expressed in Xenopus oocytes; format: functional, cell-based, Oocyte

O=c1[nH]cnc2c1ncn2[C@@H]1O[C@H](COP(=O)(O)OP(=O)(O)OP(=O)(O)OP(=O)(O)OP(=O)(O)OC[C@H]2O[C@@H](n3cnc4c(=O)[nH]cnc43)[C@H](O)[C@@H]2O)[C@@H](O)[C@H]1O
EC50 (P2X purinoceptor 1 [1]): 0.0015 µM

Cc1nc(/N=N/c2cc(S(=O)(=O)O)c3cc([N+](=O)[O-])cc(S(=O)(=O)O)c3c2)c(COP(=O)(O)O)c(C=O)c1O
EC50 (P2X purinoceptor 1 [1]): 0.014 µM

Nc1ncnc2c1ncn2[C@@H]1CO[C@H](COP(=O)(O)O)[C@@H](OP(=O)(O)O)C1
EC50 (P2Y purinoceptor 1): 0.003 µM

Nc1ncnc2c1ncn2[C@@H]1O[C@H](COP(=O)(O)OP(=O)(O)CP(=O)(O)O)[C@@H](O)[C@H]1O [PHOSPHOMETHYLPHOSPHONIC ACID ADENYLATE ESTER]
EC50 (P2Y purinoceptor 12): > 100 µM
EC50 (P2X purinoceptor 1 [2]): 2 µM
EC50 (P2Y purinoceptor 1): > 100 µM

CSc1nc(N)c2ncn([C@@H]3O[C@H](COP(=O)(O)OP(=O)(O)O)[C@@H](O)[C@H]3O)c2n1
EC50 (P2Y purinoceptor 2): > 100 µM

Nc1ncnc2c1ncn2[C@@H]1O[C@H](CO[P@](=O)(O)O[P@](=O)(O)O[P@@](=O)(O)S)[C@@H](O)[C@H]1O
EC50 (P2X purinoceptor 6): 1.3 µM
EC50 (P2X purinoceptor 3): 0.69 µM
EC50 (P2X purinoceptor 2): 1.5 µM
EC50 (P2Y purinoceptor 12): 1.3 µM
EC50 (P2Y purinoceptor 11): 3 µM
EC50 (P2X purinoceptor 1 [2]): 2.3 µM
EC50 (P2Y purinoceptor 1): 1.3 µM
EC50 (P2Y purinoceptor 2): 1.72 µM
EC50 (P2X purinoceptor 5): 0.6 µM
EC50 (P2X purinoceptor 4 [3]): 2.3 µM

Nc1ncnc2c1ncn2[C@H]1CC(OP(=O)(O)O)C2(COP(=O)(O)O)CC12 (stereo partly specified)
EC50 (P2Y purinoceptor 1): 0.155 µM

Nc1ccc(CCSc2nc(N)c3ncn([C@@H]4O[C@H](COP(=O)(O)OP(=O)(O)OP(=O)(O)O)[C@@H](O)[C@H]4O)c3n2)cc1
EC50 (P2X purinoceptor 1 [4]): 0.098 µM
EC50 (P2Y purinoceptor 1): 0.0015 µM
EC50 (P2X purinoceptor 4 [5]): 15 µM
